Laboratory results reported in patent EP1830856B1, “PREVENTING PATHOLOGICAL INCREASES IN THE RATE OF NERVE CELL SUICIDE IN IMMATURE NERVOUS SYSTEMS” (Olney, John W., priority 2004, dated 2006).

Columns and labels:
[1] = test system: apoptosis induced by anti-convulsants such as phenytoin and carbamazepine; settings: tissue culture model; only in a dose range well above the plasma levels considered therapeutic in humans; Nonaka et al., 1998; cited from earlier work
ERK = settings: infant mice; within less than 30 minutes after ethanol administration
immature brains = settings: Ikonomidou et al., 2000; cited from earlier work
AKT = settings: infant mice; within 30 minutes after administration of ethanol
[2] = test system: neuroapoptosis triggered by a cocktail of anesthetic drugs; settings: immature rats undergoing anesthesia; subcutaneous; Beals et al, 2003; cited from earlier work

## [Li] [Lithium]
[1]
  antiapoptotic action: act as an antiapoptotic agent

## CCO [ethanol]
ERK
  activated isoforms of ERK: rapid decrease
Immature brains
  neuroapoptosis responses in immature brains: triggers especially severe neuroapoptosis responses
AKT
  activated isoform of AKT: marked suppression

## COc1ccc2[nH]cc(CCNC(C)=O)c2c1 [melatonin]
[2]
  protection against pathological neuroapoptosis (effects of pretreatment): only modest
